Experimental data published in patent US20160082133A1, “CHEMICAL EXCHANGE SATURATION TRANSFER (CEST) BASED MRI USING REPORTER GENES AND SUBSTRATES AND METHODS THEREOF” (The Johns Hopkins University, priority 2013, published 2016).
Entries after “also recorded” stand apart in the source; their conditions may differ.

How the values were obtained:
Format in all cases: in vivo, mice
HSV1-TK [1] = molecular target: T1, HSV1-TK (Human herpesvirus 1, UniProt P0DTH5)
T1 construct: V5; expressed in transfected cells; host or cells: 9L rat glioma cells transfected with pcDNA3.1-HSV1-tk, single G418-selected clone, implanted in NOD-SCID mouse brain
T1 sequence (P0DTH5 whole entry): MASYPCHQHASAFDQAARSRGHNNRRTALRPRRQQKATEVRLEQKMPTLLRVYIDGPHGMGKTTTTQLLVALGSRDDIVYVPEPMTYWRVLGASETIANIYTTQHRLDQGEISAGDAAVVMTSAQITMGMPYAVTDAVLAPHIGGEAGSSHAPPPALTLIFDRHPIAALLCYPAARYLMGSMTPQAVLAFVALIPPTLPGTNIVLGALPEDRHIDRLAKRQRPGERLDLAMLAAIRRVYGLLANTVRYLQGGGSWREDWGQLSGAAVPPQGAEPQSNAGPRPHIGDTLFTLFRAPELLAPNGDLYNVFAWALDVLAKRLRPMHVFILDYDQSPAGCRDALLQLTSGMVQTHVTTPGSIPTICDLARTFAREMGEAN
Excerpt: (§1) At the last time point of the experiment the full CEST-spectrum was acquired for each animal with the same parameters described in the Experimental Section (main text) except the followings: CEST-weighted images were acquired with a modified RARE pulse sequence (TR/TE=6000/35 ms), using a 213 Hz/4000 ms saturation pulse from −6 to +6 ppm around the water resonance, which was assigned to be at 0 ppm. Pixel-based B0 correction was used as described before (Kim, M. et al. Magn Reson Med 2009, 61, 1441) using the same parameters as above except for TR=1500 ms, B1/tsat=21 Hz/500 ms, with a sweep range from −1 to +1 ppm (0.1 ppm steps). Mean CEST spectra were plotted from an ROI for each tumor and normal brain tissue, after B0 correction. MTRasym=100×(S^−Δω−S^Δω)/S0 was computed at different offsets Δω.
(§2) pcDNA3.1-HSV1-tk was used to transfect 9L rat glioma cells. A single clone was selected with 0.5 mg/mL G418 antibiotics. 9L^HSV1-tk and nontransfected wild type 9L cells (9L^wt) were inoculated (2×10^5 cells/2 μL saline) bilaterally into the striatum of adult NOD-SCID male mice to generate intracranial 9L tumors in both hemispheres.
(§3) Data were acquired using a horizontal 11.7 T MRI scanner (Bruker, Biospec) equipped with a circular polarized MRI transceiver coil (i.d.=23 mm) Seven days after cell transplantation, mice were anesthetized with 1.5% isoflurane, and a series of […] CEST data sets were obtained at 1, 2, and 3 h following intravenous (iv) injection of 2 in saline (150 mg/kg body). CEST weighted images were acquired with a modified RARE pulse sequence (TR/TE=6000/35 ms), using a 213 Hz/4000 ms saturation pulse alternating between ±5 ppm frequency offsets from the water frequency. For each time point, the MTRasym map was calculated from four pairs of s−5 ppm/s+5 ppm using MATLAB (Mathworks). A single 1 mm slice with FOV of 1.6×1.6 cm^2 and a 128×48 matrix was used.

HSV1-TK [2] = details: 3 h after iv injection, 150 mg/kg, 5 ppm, n=8
Excerpt: as §1, §2, §3

[3] = tested on: 9L^wt and 9L^HSV1-tk tumors; test: Terminal transferase nick-end-labeling (TUNEL) of brain tumors; details: 150 mg/kg, 6 hours post i.v. injection
Experimental: ApopTag® Plus In Situ Apoptosis Fluorescein Detection Kit (Millipore) was used for detecting degraded DNA fragments to evaluate apoptosis after the administration of compound 2. Six hours after i.v. administration of 2 (150 mg/kg body weight) mice were transcardially perfused with 10 mM PBS and 4% PFA for tissue fixation. Brains were fixed in 4% PFA overnight, cryopreserved in 30% sucrose, and followed by cryo-sectioning at 30 μm slices. Slices were post-fixed in ethanol: acetic acid (2:1) solution followed by the manufacture procedure for using the ApopTag® Plus In Situ Apoptosis Fluorescein Detection Kit (Millipore, […]).

CC1(C)CN([C@H]2C[C@H](O)[C@@H](CO)O2)C(=O)NC1=O [Compound 2, 5-Methyl-5,6-dihydrothymidine]
average difference in ΔMTRasym between the two tumor types (full CEST spectrum) (HSV1-TK [1]; 5.0 ppm, last time point, N=8): approximately 0.77%
normalized mean MTRasym values (ΔMTRasym), 9L^HSV1-tk tumor (HSV1-TK [1]; 3 h after iv injection, 150 mg/kg, 5 ppm, n=8): 4.5±1.5
estimated intracellular concentration in 9L^HSV1-tk tumors (HSV1-TK [1]; from calibration curve, in vivo): approximately 0.7 mM
normalized mean MTRasym values (ΔMTRasym), 9L^wt tumor (HSV1-TK [2]): 2.0±1.7
apoptosis (TUNEL staining) [3]: did not induce apoptosis; also recorded: do not induce apoptosis
